Measured values from patent US10683297B2 (Sunshine Lake Pharma Co., Ltd., priority 2017, dated 2020).
Marks after values point to notes of the source that are not given here.

Key:
JAK2 (h) = molecular target: T1, JAK2 (h) (Homo sapiens, UniProt O60674); assay: JAK2 (h) kinase assay; assay type: biochemical; conditions: [γ-33P-ATP] 10 μM or KM values; 40 minutes at room temperature
T1 construct: purchased Millipore UK Ltd (assays performed there as a service)
Method: Kinase assays can be performed by measurement of incorporation of γ-^33P ATP into immobilized myelin basic protein (MBP). High binding white 384 well plates (Greiner) are coated with MBP (Sigma # M-1891) by incubation of 60 μL well of 20 μg/mL MBP in Tris-buffered saline (TBS; 50 mM Tris pH 8.0, 138 mM NaCl, 2.7 mM KCl) for 24 h at 4° C. Plates are washed 3× with 100 μL TBS. Kinase reactions are carried out in a total volume of 34 μL in kinase buffer (according to the need to make, for example, 5 mM Hepes pH 7.6, 15 mM NaCl, 0.01% bovine gamma globulin (Sigma #1-5506), 10 mM MgCl2, 1 mM DTT, 0.02% TritonX-100). Compound dilutions are performed in DMSO and added to assay wells to a final DMSO concentration of 1%. Each data point is measured in duplicate, and at least two duplicate assays are performed for each individual compound determination. Enzyme is added to final concentrations of 10 nM or 20 nM, for example. A mixture of unlabeled ATP and γ-^33P ATP is added to start the reaction (2×10^6 cpm of γ-^33P ATP per well (3000 Ci/mmole) and 10 μM unlabeled ATP, typically. The reactions are carried out for 1 hour at room temperature with shaking. Plates are washed 7× with TBS, followed by the addition of 50 μL well scintillation fluid (Wallac). Plates are read using a Wallac Trilux counter. This is only one format of such assays; various other formats are possible, as known to one skilled in the art.
(§1) The above assay procedure can be used to determine the IC50 for inhibition and/or the inhibition constant, Ki. […] The IC50 value is estimated by preparing a 10 point curve using a ½ log dilution series (for example, a typical curve may be prepared using the following compound concentrations: 3 μM, 1 μM, 0.3 μM, 0.1 μM, 0.03 μM, 0.01 μM, 0.003 μM, 0.001 μM, 0.0003 μM and 0 μM).
JAK2 (h) is incubated with 8 mM MOPS pH 7.0, 0.2 mM EDTA, 100 μM […], 10 mM MgAcetate and [γ-^33P-ATP] […] The reaction is initiated by the addition of the MgATP mix. After incubation for 40 minutes at room temperature, the reaction is stopped by the addition of 3% phosphoric acid solution. 10 μL of the reaction is then spotted onto a P30 filtermat and washed three times for 5 minutes in 75 mM phosphoric acid and once in methanol prior to drying and scintillation counting.
(§2) The kinase assays described herein were performed at Millipore UK Ltd, Dundee Technology Park, Dundee DD2 1SW, UK.

Aurora-B (h) = molecular target: T2, Aurora-B (h) (Homo sapiens, UniProt Q96GD4); assay: Aurora-B (h) kinase assay; assay type: biochemical; conditions: [γ-33P-ATP] 10 μM or KM values; 40 minutes at room temperature
T2 construct: purchased Millipore UK Ltd (assays performed there as a service)
T2 sequence (Q96GD4 whole entry): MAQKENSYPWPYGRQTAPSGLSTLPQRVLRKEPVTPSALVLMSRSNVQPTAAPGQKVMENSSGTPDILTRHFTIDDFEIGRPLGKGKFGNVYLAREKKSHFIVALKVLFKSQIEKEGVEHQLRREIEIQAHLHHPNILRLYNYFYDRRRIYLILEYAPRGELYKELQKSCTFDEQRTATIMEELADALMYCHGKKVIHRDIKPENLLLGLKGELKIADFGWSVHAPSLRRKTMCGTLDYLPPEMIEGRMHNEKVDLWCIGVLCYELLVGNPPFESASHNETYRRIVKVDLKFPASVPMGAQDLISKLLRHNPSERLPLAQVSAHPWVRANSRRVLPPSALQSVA
Method: as §1
Aurora-B (h) is incubated with 8 mM MOPS pH 7.0, 0.2 mM EDTA, 30 μM […], 10 mM MgAcetate and [γ-^33PATP] […] The reaction is initiated by the addition of the MgATP mix. After incubation for 40 minutes at room temperature, the reaction is stopped by the addition of a 3% phosphoric acid solution. 10 μL of the reaction is then spotted onto a P30 filtermat and washed three times for 5 minutes in 75 mM phosphoric acid and once in methanol prior to drying and scintillation counting.
as §2

JAK1 (h) = molecular target: T3, JAK1 (h) (Homo sapiens, UniProt P23458); assay: JAK1 (h) kinase assay; assay type: biochemical; conditions: [γ-33P-ATP] 10 μM or KM values; 40 minutes at room temperature
T3 construct: purchased Millipore UK Ltd (assays performed there as a service)
T3 sequence (P23458 whole entry): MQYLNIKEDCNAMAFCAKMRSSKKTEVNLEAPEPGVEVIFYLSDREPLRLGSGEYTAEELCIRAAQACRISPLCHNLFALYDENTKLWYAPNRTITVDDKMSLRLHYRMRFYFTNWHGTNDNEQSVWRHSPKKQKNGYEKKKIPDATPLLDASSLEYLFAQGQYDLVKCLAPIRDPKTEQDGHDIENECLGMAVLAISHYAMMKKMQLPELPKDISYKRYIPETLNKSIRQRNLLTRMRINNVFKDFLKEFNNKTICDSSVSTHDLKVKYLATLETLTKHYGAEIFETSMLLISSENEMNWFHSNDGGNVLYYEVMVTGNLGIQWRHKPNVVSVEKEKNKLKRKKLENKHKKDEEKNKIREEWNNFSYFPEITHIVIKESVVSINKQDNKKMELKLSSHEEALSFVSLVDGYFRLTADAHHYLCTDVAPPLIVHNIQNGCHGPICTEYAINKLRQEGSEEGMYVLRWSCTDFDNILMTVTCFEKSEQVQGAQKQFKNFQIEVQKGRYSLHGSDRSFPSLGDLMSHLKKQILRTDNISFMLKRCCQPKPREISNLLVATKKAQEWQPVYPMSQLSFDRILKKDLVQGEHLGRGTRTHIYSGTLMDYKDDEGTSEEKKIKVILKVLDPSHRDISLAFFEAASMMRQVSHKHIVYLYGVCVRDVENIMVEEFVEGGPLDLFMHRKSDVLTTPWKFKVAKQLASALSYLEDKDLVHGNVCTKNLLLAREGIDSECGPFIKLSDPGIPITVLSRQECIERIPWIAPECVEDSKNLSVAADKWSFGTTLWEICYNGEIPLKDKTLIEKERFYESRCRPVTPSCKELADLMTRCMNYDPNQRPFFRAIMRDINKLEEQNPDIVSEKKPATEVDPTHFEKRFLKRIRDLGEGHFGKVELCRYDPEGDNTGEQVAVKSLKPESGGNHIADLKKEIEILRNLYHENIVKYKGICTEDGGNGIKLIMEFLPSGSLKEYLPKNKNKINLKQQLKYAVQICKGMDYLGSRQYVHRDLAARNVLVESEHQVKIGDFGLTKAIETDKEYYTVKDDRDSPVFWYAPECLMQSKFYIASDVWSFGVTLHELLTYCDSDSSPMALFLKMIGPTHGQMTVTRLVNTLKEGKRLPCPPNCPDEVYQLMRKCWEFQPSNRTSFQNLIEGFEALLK
How it was run: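 Radiometric filter-binding assay: human JAK1 incubated 40 min at room temperature in 20 mM Tris/HCl pH 7.5, 0.2 mM EDTA, 500 μM peptide substrate, 10 mM Mg acetate, with [γ-33P]ATP at 10 μM or KM. Reaction stopped with phosphoric acid; P30 filtermat scintillation counting.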

[1] = Compound stability in human liver microsomes; assay type: in vitro ADME; conditions: for half-life at 5 μM: human liver microsomes 0.5 mg protein/mL, compound 5 μM, NADPH 1.0 mM, pH 7.4, 37° C., read-out: Human T1/2; for CLint scaled at 5 μM: liver microsomes, pH 7.4, in vivo CLint extrapolated from human liver microsome incubation
How it was run: (§3)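 Compounds (5 μM) incubated at 37 °C with human or rat liver microsomes (0.5 mg protein/mL) and 1.0 mM NADPH in 100 mM phosphate buffer pH 7.4, 0.05% DMSO, in duplicate. Sampled 0–60 min, quantified by LC/MS/MS as % of time zero; CLint extrapolated.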

[2] = Compound stability in rat liver microsomes; assay type: in vitro ADME; conditions: for CLint scaled at 5 μM: liver microsomes, pH 7.4, in vivo CLint extrapolated from rat liver microsome incubation; for half-life at 5 μM: rat liver microsomes 0.5 mg protein/mL, compound 5 μM, NADPH 1.0 mM, pH 7.4, 37° C., read-out: Rat T1/2
How it was run: as §3

[3] = system: PMA-induced increase in mouse ear thickness and weight; assay: Topical PMA-induced acute atopic dermatitis in ICR mice; assay type: in vivo; conditions: ICR female mice, 0.3 mg/ear/bid topical; for thickness (right ear) / Weight (right ear): 30 minutes before and 15 minutes after PMA, Mean±Sem; for thickness (right ear) / thickness Inhibition ratio: 6 hours after PMA
Method: ICR female mice (20-30 g), five mice or nine mice/group, were used in this study. Five micrograms of PMA (phorbol 12-myristate 13-acetate) in 20 μL of ethanol was applied topically to the anterior and posterior surface of the right ear of each mouse. Twenty microliters of vehicle (ethanol/acetone ([…])=1/1); 0.3 mg of EX. 68 ([…]); EX. 76, EX. 50, EX. 92 or EX. 65 (0.3 mg […]) were administrated to the same areas 30 minutes before and 15 minutes after PMA application. The thickness of right ears of each mouse was measured 6 hours after PMA stimulation. Ear weight of right ears of each mouse was weighed with analytical balance Each value represents the Mean±Sem. Statistical significance compared with model groups (*P<0.05; **P<0.01). Tables 5-1, 5-2 and 5-3 listed the inhibitory effect on PMA-induced increase in mouse ear thickness and weight. The compounds of the present invention have a good inhibitory effect on PMA-induced increase in mouse ear thickness and weight.

T1 sequence (O60674 whole entry): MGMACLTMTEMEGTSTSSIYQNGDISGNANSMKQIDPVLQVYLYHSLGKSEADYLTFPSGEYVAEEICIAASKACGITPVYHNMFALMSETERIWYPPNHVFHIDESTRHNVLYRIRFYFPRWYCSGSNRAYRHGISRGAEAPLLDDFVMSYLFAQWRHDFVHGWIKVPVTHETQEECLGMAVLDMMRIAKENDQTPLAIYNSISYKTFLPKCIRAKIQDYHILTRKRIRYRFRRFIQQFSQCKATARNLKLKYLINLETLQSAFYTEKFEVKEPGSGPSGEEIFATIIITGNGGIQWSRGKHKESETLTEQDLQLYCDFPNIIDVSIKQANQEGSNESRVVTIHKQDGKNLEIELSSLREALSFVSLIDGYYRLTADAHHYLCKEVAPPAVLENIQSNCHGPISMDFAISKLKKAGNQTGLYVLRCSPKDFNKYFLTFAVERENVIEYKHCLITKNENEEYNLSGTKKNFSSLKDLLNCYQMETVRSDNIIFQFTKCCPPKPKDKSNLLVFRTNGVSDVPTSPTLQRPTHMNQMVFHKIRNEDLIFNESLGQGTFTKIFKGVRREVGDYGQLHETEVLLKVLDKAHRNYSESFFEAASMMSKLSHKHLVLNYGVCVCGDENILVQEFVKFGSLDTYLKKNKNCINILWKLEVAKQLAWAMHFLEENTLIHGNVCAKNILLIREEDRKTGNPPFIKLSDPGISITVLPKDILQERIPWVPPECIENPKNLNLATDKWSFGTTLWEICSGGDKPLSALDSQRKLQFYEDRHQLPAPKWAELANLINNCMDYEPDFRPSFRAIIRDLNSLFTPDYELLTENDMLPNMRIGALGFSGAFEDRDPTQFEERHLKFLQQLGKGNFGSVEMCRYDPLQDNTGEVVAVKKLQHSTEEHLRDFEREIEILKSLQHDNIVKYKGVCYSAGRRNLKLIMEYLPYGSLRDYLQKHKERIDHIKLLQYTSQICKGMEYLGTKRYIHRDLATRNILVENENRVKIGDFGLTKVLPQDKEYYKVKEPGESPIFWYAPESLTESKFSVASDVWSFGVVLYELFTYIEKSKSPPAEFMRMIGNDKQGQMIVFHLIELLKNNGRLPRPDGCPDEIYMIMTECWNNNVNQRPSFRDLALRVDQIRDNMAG

Row | IC50 (JAK2 (h)) [nM] | IC50 (Aurora-B (h)) [nM] | IC50 (JAK1 (h)) [nM] | half-life at 5 μM [1] [min] | CLint scaled at 5 μM [1] [mL/min/kg] | CLint scaled at 5 μM [2] [mL/min/kg] | half-life at 5 μM [2] [min] | Structure (SMILES) | Weight Inhibition ratio [3] [%] | thickness (right ear) [3] | Weight (right ear) [3] | thickness Inhibition ratio [3] [%]
1 | 2 | 48 | 0.4 | 192 | 9.1 | 75.3 | 33 | CC(C)(O)Cn1nnc2cc(Nc3ncc(Cl)c(NC4CCN(c5ccc(C#N)nn5)CC4)n3)ccc21 [Example 62, 6-(4-((5-chloro-2-((1-(2-hydroxy-2-methylpropyl)-1H-benzo[d][1,2,3]triazol-5-yl)amino)pyrimidin-4-yl)amino)piperidin-1-yl)pyridazine-3-carbonitrile] | – | – | – | –
2 | – | – | 0.9 | 8 | 218 | 473 | 5.3 | CCCn1nnc2cc(Nc3ncc(Cl)c(NC4CCN(c5ccc(C#N)nn5)CC4)n3)ccc21 [Example 65, 6-(4-((5-chloro-2-((1-propyl-1H-benzo[d][1,2,3]triazol-5-yl)amino)pyrimidin-4-yl)amino)piperidin-1-yl)pyridazine-3-carbonitrile] | 46.22 | 0.374 ± 0.022** mm | 26.333 ± 1.958* mg | 38.95
3 | – | – | 0.5 | 15.1 | 115 | 1440 | 1.7 | CC(C)(O)Cc1cn2ccc(Nc3ncc(Cl)c(NC4CCN(c5ccc(C#N)cn5)CC4)n3)cc2n1 [Example 76, 6-(4-((5-chloro-2-((2-(2-hydroxy-2-methylpropyl)imidazo[1,2-a]pyridin-7-yl)amino)pyrimidin-4-yl)amino)piperidin-1-yl)nicotinonitrile] | 68.40 | 0.252 ± 0.018** mm | 20.000 ± 1.323** mg | 77.86
4 | 17 | 163 | 0.3 | 32.5 | 53.5 | 106 | 23.5 | CN(C)C(=O)c1nc2cc(Nc3ncc(Cl)c(NC4CCN(c5ccc(C#N)nn5)CC4)n3)ccn2n1 [Example 85, 7-((5-chloro-4-((1-(6-cyanopyridazin-3-yl)piperidin-4-yl)amino)pyrimidin-2-yl)amino)-N,N-dimethyl-[1,2,4]triazolo[1,5-a]pyridine-2-carboxamide] | – | – | – | –
